From US20250361259A1, “AMORPHOUS FORM OF REDUCED ß-NICOTINAMIDE MONONUCLEOTIDE CALCIUM SALT, AND PREPARATION METHOD AND USE THEREFOR” (EffePharm (Shanghai) Co., Ltd., priority 2023, published 2025)
Like-named read-outs stand apart in the source and are kept apart here.

Columns and labels:
[1] = Hygroscopicity study (water content, KF) at 25° C., 65% RH; format: physicochemical
Experimental: The NMNH calcium salt amorphous solids A/B/C/D were each placed openly in a stability test chamber at 25° C. and 65% RH to evaluate their stability, yielding the data shown in Table 1 and Table 2. […] The amorphous solid of NMNH disodium salt is more unstable in the air. After 1 day of storage, it absorbs water from powder to oil, and the purity drops from 99.30% to 99.02%.

[2] = Stability comparison, solids placed openly in a stability test chamber at 25° C. and 65% RH (purity by HPLC, appearance); format: physicochemical; details: open, calcium salt
Experimental: NMNH is the reduced form of NMN, sensitive to air, easily oxidized, and unstable, making it unsuitable for long-term storage and market promotion. WO2023160405(A1) reported the NMNH disodium salt compound and its crystalline and amorphous forms. […] Such stability fails to meet the shelf-life requirements for commercial products, hindering market promotion. The NMNH calcium salt amorphous solids A/B/C/D were each placed openly in a stability test chamber at 25° C. and 65% RH to evaluate their stability, yielding the data shown in Table 1 and Table 2.

[3] = 25° C., 65% RH, according to WO2023160405(A1), cited from earlier work
[4] = according to WO2023160405(A1); cited from earlier work

Water content of NMNH calcium salt amorphous solid (KF) ([1]; 0 day) [%] | Water content of NMNH calcium salt amorphous solid (KF) ([1]; 5 days) [%] | Water content of NMNH calcium salt amorphous solid (KF) ([1]; 60 days) [%] | Purity (HPLC, area %) ([2]; 0 day) [%] | Purity (HPLC, area %) ([2]; 5 days) [%] | Purity (HPLC, area %) ([2]; 60 days) [%] | SMILES | also measured
0.8 | 0.8 | 0.9 | 99.51 | 99.50 | 99.50 | NC(=O)C1=CN([C@@H]2O[C@H](COP(=O)(O)O)[C@@H](O)[C@H]2O)C=CC1.[Ca+2] [NMNH calcium salt Amorphous form A, reduced β-nicotinamide mononucleotide calcium salt] | –
1.3 | 1.3 | 1.3 | 99.28 | 99.28 | 99.28 | NC(=O)C1=CN([C@@H]2O[C@H](COP(=O)(O)O)[C@@H](O)[C@H]2O)C=CC1.[Ca+2] [NMNH calcium salt Amorphous form B, reduced β-nicotinamide mononucleotide calcium salt] | –
1.5 | 1.6 | 1.5 | 99.14 | 99.14 | 99.13 | NC(=O)C1=CN([C@@H]2O[C@H](COP(=O)(O)O)[C@@H](O)[C@H]2O)C=CC1.[Ca+2] [NMNH calcium salt Amorphous form C, reduced β-nicotinamide mononucleotide calcium salt] | –
1.9 | 1.9 | 1.9 | 99.50 | 99.49 | 99.49 | NC(=O)C1=CN([C@@H]2O[C@H](COP(=O)(O)O)[C@@H](O)[C@H]2O)C=CC1.[Ca+2] [NMNH calcium salt Amorphous form D, reduced β-nicotinamide mononucleotide calcium salt] | –
– | – | – | – | – | – | NC(=O)C1=CN([C@@H]2O[C@H](COP(=O)([O-])[O-])[C@@H](O)[C@H]2O)C=CC1.[Na+].[Na+] [NMNH disodium salt Amorphous form, NMNH disodium salt] | Purity (HPLC, area %) ([3]; 0 day, disodium salt): 99.30%; Purity (HPLC, area %) ([3]; 0 day, listed as NMNH disodium salt amorphous powder, disodium salt): 99.30%; Purity (HPLC, area %) ([3]; 0 day, listed as amorphous solid of NMNH disodium salt, disodium salt): 99.30%; Appearance after storage (powder to oil) ([3]; 1 day): oil; Purity (HPLC, area %) ([3]; 1 day, disodium salt): 99.02%; Purity (HPLC, area %) ([3]; 1 day, listed as NMNH disodium salt amorphous powder, disodium salt): 99.02%; Purity (HPLC, area %) ([3]; 1 day, listed as amorphous solid of NMNH disodium salt, disodium salt): 99.02%
– | – | – | – | – | – | NC(=O)C1=CN([C@@H]2O[C@H](COP(=O)([O-])[O-])[C@@H](O)[C@H]2O)C=CC1.[Na+].[Na+] [NMNH disodium salt Crystal form A, NMNH disodium salt] | Purity (HPLC, area %) ([3]; 0 day, disodium salt): 99.33%; Purity (HPLC, area %) ([3]; 0 day, listed as NMNH disodium salt crystal form A, disodium salt): 99.33%; Purity (HPLC, area %) ([3]; 0 day, listed as NMNH disodium salt crystalline Form A solid, disodium salt): 99.33%; Purity (HPLC, area %) ([3]; 1 day, disodium salt): 99.27%; Purity (HPLC, area %) ([3]; 5 days): 99.01%
– | – | – | – | – | – | NC(=O)C1=CN([C@@H]2O[C@H](COP(=O)([O-])[O-])[C@@H](O)[C@H]2O)C=CC1.[Na+].[Na+] [NMNH disodium salt crystal form B, NMNH disodium salt] | Solid form change when stored in the air [4]: absorb water and transform into crystal form A
